# Experimental data as given in US20100298141A1, “SUBSTITUTED PYRIDINE N-OXIDE HERBICIDES” (E. I. DU PONT DE NEMOURS AND COMPANY, priority 2007, published 2010).
# How the values were obtained:
# Experiment in all cases: Test A pre-/postemergence greenhouse test
# giant foxtail = assay type: in vivo, Setaria faberi; conditions: for Plant response rating, Foxtail, Giant: 0 to 100 scale where 0 is no effect and 100 is complete control; for Foxtail, Giant plant response rating: 0 to 100 scale
# Source text: (§1) Seeds of barnyardgrass (Echinochloa crus-galli), crabgrass (Digitaria sanguinalis), giant foxtail (Setaria faberi), morningglory (Ipomoea spp.), redroot pigweed (Amaranthus retroflexus), velvetleaf (Abutilon theophrasti), wheat (Triticum aestivum), and corn (Zea mays) were planted into a blend of loam soil and sand and treated preemergence with a directed soil spray using test compounds formulated in a non-phytotoxic solvent mixture which included a surfactant. At the same time these species were also treated with postemergence applications of test compounds formulated in the same manner. Plants ranged in height from two to ten cm and were in the one- to two-leaf stage for the postemergence treatment. Treated plants and untreated controls were maintained in a greenhouse for approximately ten days, after which time all treated plants were compared to untreated controls and visually evaluated for injury. […] A dash (-) response means no test results.
# velvetleaf = assay type: in vivo, Abutilon theophrasti; conditions: for Plant response rating, Velvetleaf: 0 to 100 scale where 0 is no effect and 100 is complete control; for Velvetleaf plant response rating: 0 to 100 scale
# Source text: as §1
# corn = assay type: in vivo, Zea mays; conditions: for Plant response rating, Corn: 0 to 100 scale where 0 is no effect and 100 is complete control; for Corn plant response rating: 0 to 100 scale
# Source text: as §1
# barnyardgrass = assay type: in vivo, Echinochloa crus-galli; conditions: for Plant response rating, Barnyardgrass: 0 to 100 scale where 0 is no effect and 100 is complete control; for Barnyardgrass plant response rating: 0 to 100 scale
# Source text: as §1
# wheat = assay type: in vivo, Triticum aestivum; conditions: for Plant response rating, Wheat: 0 to 100 scale where 0 is no effect and 100 is complete control; for Wheat plant response rating: 0 to 100 scale
# Source text: as §1
# redroot pigweed = assay type: in vivo, Amaranthus retroflexus; conditions: for Plant response rating, Pigweed: 0 to 100 scale where 0 is no effect and 100 is complete control; for Pigweed plant response rating: 0 to 100 scale
# Source text: as §1
# morningglory = assay type: in vivo, Ipomoea spp.; conditions: for Plant response rating, Morningglory: 0 to 100 scale where 0 is no effect and 100 is complete control; for Morningglory plant response rating: 0 to 100 scale
# Source text: as §1
# crabgrass = assay type: in vivo, Digitaria sanguinalis; conditions: for Plant response rating, Crabgrass, Large: 0 to 100 scale where 0 is no effect and 100 is complete control; for Crabgrass, Large plant response rating: 0 to 100 scale
# Source text: as §1
# [1] = Postemergence, 500 g ai/ha, 0 is no effect, 100 is complete control
# [2] = Preemergence, 125 g ai/ha, 0 no effect, 100 complete control
# [3] = Preemergence, 500 g ai/ha, 0 no effect, 100 complete control
Compound,"Plant response rating, Foxtail, Giant (giant foxtail; Postemergence, 125 g ai/ha)","Foxtail, Giant plant response rating (giant foxtail; [1])","Foxtail, Giant plant response rating (giant foxtail; [2])","Foxtail, Giant plant response rating (giant foxtail; [3])","Plant response rating, Velvetleaf (velvetleaf; Postemergence, 125 g ai/ha)",Velvetleaf plant response rating (velvetleaf; [1]),Velvetleaf plant response rating (velvetleaf; [2]),Velvetleaf plant response rating (velvetleaf; [3]),"Plant response rating, Corn (corn; Postemergence, 125 g ai/ha)",Corn plant response rating (corn; [1]),Corn plant response rating (corn; [2]),Corn plant response rating (corn; [3]),"Plant response rating, Barnyardgrass (barnyardgrass; Postemergence, 125 g ai/ha)",Barnyardgrass plant response rating (barnyardgrass; [1]),Barnyardgrass plant response rating (barnyardgrass; [2]),Barnyardgrass plant response rating (barnyardgrass; [3]),"Plant response rating, Wheat (wheat; Postemergence, 125 g ai/ha)",Wheat plant response rating (wheat; [1]),Wheat plant response rating (wheat; [2]),Wheat plant response rating (wheat; [3]),other results
"CC(C)c1cc[n+]([O-])c(S(=O)(=O)Cc2c(C(F)(F)F)nn(C)c2OCC(F)(F)F)c1 [Compound 111, 4-(1-methylethyl)-2-[[[1-methyl-5-(2,2,2-trifluoroethoxy)-3-trifluoromethyl-1H-pyrazol-4-yl]methyl]sulfonyl]pyridine 1-oxide]",60,80,90,100,50,60,60,100,0,40,0,50,50,70,80,100,50,60,50,80,"Plant response rating, Pigweed (redroot pigweed; Postemergence, 125 g ai/ha): 60; Pigweed plant response rating (redroot pigweed; [1]): 60; Pigweed plant response rating (redroot pigweed; [2]): 50; Pigweed plant response rating (redroot pigweed; [3]): 100; Plant response rating, Morningglory (morningglory; Postemergence, 125 g ai/ha): 20; Morningglory plant response rating (morningglory; [1]): 60; Morningglory plant response rating (morningglory; [2]): 80; Morningglory plant response rating (morningglory; [3]): 100; Plant response rating, Crabgrass, Large (crabgrass; Postemergence, 125 g ai/ha): 40; Crabgrass, Large plant response rating (crabgrass; [1]): 70; Crabgrass, Large plant response rating (crabgrass; [2]): 60; Crabgrass, Large plant response rating (crabgrass; [3]): 90"
CCCc1cc[n+]([O-])c([S+]([O-])Cc2c(C(F)(F)F)nn(C)c2OCC(F)(F)F)c1 (stereo not shown) [Compound 114],80,90,100,100,50,60,60,80,60,70,30,80,50,80,90,100,50,70,60,90,"Plant response rating, Pigweed (redroot pigweed; Postemergence, 125 g ai/ha): 70; Pigweed plant response rating (redroot pigweed; [1]): 90; Pigweed plant response rating (redroot pigweed; [2]): 100; Pigweed plant response rating (redroot pigweed; [3]): 100; Plant response rating, Morningglory (morningglory; Postemergence, 125 g ai/ha): 60; Morningglory plant response rating (morningglory; [1]): 70; Morningglory plant response rating (morningglory; [2]): 70; Morningglory plant response rating (morningglory; [3]): 90; Plant response rating, Crabgrass, Large (crabgrass; Postemergence, 125 g ai/ha): 50; Crabgrass, Large plant response rating (crabgrass; [1]): 80; Crabgrass, Large plant response rating (crabgrass; [2]): 90; Crabgrass, Large plant response rating (crabgrass; [3]): 100"
CCCc1cc[n+]([O-])c(S(=O)(=O)Cc2c(C(F)(F)F)nn(C)c2OCC(F)(F)F)c1 [Compound 115],40,80,90,100,0,20,20,60,0,20,30,50,60,70,90,90,30,50,20,50,"Plant response rating, Pigweed (redroot pigweed; Postemergence, 125 g ai/ha): 20; Pigweed plant response rating (redroot pigweed; [1]): 80; Pigweed plant response rating (redroot pigweed; [2]): 100; Pigweed plant response rating (redroot pigweed; [3]): 100; Plant response rating, Morningglory (morningglory; Postemergence, 125 g ai/ha): 0; Morningglory plant response rating (morningglory; [1]): 0; Morningglory plant response rating (morningglory; [2]): 30; Morningglory plant response rating (morningglory; [3]): 80; Plant response rating, Crabgrass, Large (crabgrass; Postemergence, 125 g ai/ha): 20; Crabgrass, Large plant response rating (crabgrass; [1]): 70; Crabgrass, Large plant response rating (crabgrass; [2]): 80; Crabgrass, Large plant response rating (crabgrass; [3]): 100"
CCCc1cc[n+]([O-])c([S+]([O-])Cc2c(C(F)(F)F)nn(C)c2OC(F)F)c1 (stereo not shown) [Compound 116],80,90,100,100,50,80,0,90,60,90,60,90,70,80,70,100,50,60,50,80,"Plant response rating, Pigweed (redroot pigweed; Postemergence, 125 g ai/ha): 70; Pigweed plant response rating (redroot pigweed; [1]): 90; Pigweed plant response rating (redroot pigweed; [2]): 100; Pigweed plant response rating (redroot pigweed; [3]): 100; Plant response rating, Morningglory (morningglory; Postemergence, 125 g ai/ha): 60; Morningglory plant response rating (morningglory; [1]): 90; Morningglory plant response rating (morningglory; [2]): 100; Morningglory plant response rating (morningglory; [3]): 100; Plant response rating, Crabgrass, Large (crabgrass; Postemergence, 125 g ai/ha): 70; Crabgrass, Large plant response rating (crabgrass; [1]): 80; Crabgrass, Large plant response rating (crabgrass; [2]): 90; Crabgrass, Large plant response rating (crabgrass; [3]): 100"
CCCc1cc[n+]([O-])c(S(=O)(=O)Cc2c(C(F)(F)F)nn(C)c2OC(F)F)c1 [Compound 117],70,80,90,90,50,60,10,90,0,40,20,60,40,80,20,90,40,50,30,70,"Plant response rating, Pigweed (redroot pigweed; Postemergence, 125 g ai/ha): 60; Pigweed plant response rating (redroot pigweed; [1]): 80; Pigweed plant response rating (redroot pigweed; [2]): 100; Pigweed plant response rating (redroot pigweed; [3]): 100; Plant response rating, Morningglory (morningglory; Postemergence, 125 g ai/ha): 40; Morningglory plant response rating (morningglory; [1]): 90; Morningglory plant response rating (morningglory; [2]): 80; Morningglory plant response rating (morningglory; [3]): 90; Plant response rating, Crabgrass, Large (crabgrass; Postemergence, 125 g ai/ha): 50; Crabgrass, Large plant response rating (crabgrass; [1]): 80; Crabgrass, Large plant response rating (crabgrass; [2]): 80; Crabgrass, Large plant response rating (crabgrass; [3]): 90"
